Type in all cases: biochemical
The target of one experiment is PDE3 (Homo sapiens, UniProt Q14432). Put plainly: Inhibition of PDE isoenzymes: PDE3 (cGMP-inhibited), homogenates of human blood platelets. The conditions noted are these: read-out: -log IC50, PDE3 (converted). As for the experimental part:
(§1) The PDE activity was determined according to Thompson et al. (1) with some modifications (2). The test samples contained 40 mM tris HCl (pH 7.4), 5 mM MgCl2, 0.5 μM cAMP or cGMP, [^3 H] cAMP or [^3 H]cGMP (about 50,000 cpm/sample), the PDE isoenzyme-specific additions described in greater detail below, the indicated concentrations of inhibitor and an aliquot of the enzyme solution in a total sample volume of 200 μl. […] After preincubation at 37° C. for 5 minutes, the reaction was started by addition of the substrate (cAMP or cGMP). The samples were incubated at 37° C. for a further 15 min. The reaction was terminated by addition of 50 μl of 0.2N HCl. After cooling on ice for 10 minutes and addition of 25 μg of 5'-nucleotidase (snake venom from Crotalus atrox), the mixture was again incubated at 37° C. for 10 min and the samples were then applied to QAE Sephadex A-25 columns. The columns were eluted with 2 ml of 30 mM ammonium formate (pH 6.0). The radioactivity of the eluate was measured and corrected by the corresponding blank values. The proportion of hydrolyzed nucleotide in no case exceeded 20% of the original substrate concentration.
PDE3 (cGMP-inhibited) and PDE5 (cGMP-specific) were investigated in homogenates of human blood platelets [Schudt et al. (4)] using cAMP or cGMP as a substrate.
(§2) The IC50 values were determined from the concentration-inhibition curves by nonlinear regression using the GraphPad InPlot™ program (GraphPad Software Inc., Philadelphia, U.S.A.).
In Table 1 below, the inhibitory concentrations determined according to Section A1 [inhibitory concentrations as -log IC50 (mol/l)] for the compounds according to the invention are indicated for various PDE isoenzymes. The numbers of the compounds correspond to the numbers of the examples.

In the next experiment the target is PDE4. Put plainly: Inhibition of PDE isoenzymes: PDE4 (cAMP-specific), cytosol of human polymorphonuclear leukocytes. The conditions noted are these: PDE4, cytosol of human PMNL, cAMP as substrate, motapizone (1 μM) present.
A further experiment deals with T1, PDE2 (Rattus norvegicus, UniProt Q01062).
T1 construct: from rat hearts was purified chromatographically; from tissue; host or cells: rat heart, chromatographically purified
T1 sequence (Q01062 1-928): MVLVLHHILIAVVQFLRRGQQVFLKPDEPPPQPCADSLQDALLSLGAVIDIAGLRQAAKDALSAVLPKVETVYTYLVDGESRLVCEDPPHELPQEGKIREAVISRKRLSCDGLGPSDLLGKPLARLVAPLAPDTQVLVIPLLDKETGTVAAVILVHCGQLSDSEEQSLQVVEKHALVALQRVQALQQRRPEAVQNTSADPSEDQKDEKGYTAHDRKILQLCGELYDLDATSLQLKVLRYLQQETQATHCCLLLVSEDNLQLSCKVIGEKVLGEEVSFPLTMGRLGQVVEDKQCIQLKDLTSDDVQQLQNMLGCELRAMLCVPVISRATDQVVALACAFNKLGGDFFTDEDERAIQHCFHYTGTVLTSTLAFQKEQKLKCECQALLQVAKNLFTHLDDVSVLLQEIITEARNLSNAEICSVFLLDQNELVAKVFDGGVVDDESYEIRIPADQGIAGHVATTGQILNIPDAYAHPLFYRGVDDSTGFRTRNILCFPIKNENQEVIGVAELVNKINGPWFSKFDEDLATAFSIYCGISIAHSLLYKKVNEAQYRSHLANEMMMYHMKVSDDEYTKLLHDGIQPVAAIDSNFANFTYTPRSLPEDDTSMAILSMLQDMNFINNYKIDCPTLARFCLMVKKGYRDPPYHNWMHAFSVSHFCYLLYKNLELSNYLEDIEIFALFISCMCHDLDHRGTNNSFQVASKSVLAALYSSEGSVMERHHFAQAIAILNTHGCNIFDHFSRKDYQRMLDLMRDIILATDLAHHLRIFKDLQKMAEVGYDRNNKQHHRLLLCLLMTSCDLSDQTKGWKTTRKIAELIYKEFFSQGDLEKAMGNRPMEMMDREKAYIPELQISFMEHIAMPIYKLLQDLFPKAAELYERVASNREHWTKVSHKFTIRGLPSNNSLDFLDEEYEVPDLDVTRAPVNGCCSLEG
Put plainly: Inhibition of PDE isoenzymes: PDE2 (cGMP-stimulated) from rat hearts. The conditions noted are these: cGMP (5 μM), cAMP as substrate, read-out: -log IC50, PDE2 (converted). The protocol:
as §1, with “The columns were eluted with 2 ml of 30 mM ammonium formate (pH 6.0).” left out, “The proportion of hydrolyzed nucleotide in no case exceeded 20% of the original substrate concentration.” left out
as §2
(§3) In Table 1 below, the inhibitory concentrations determined according to Section A1 [inhibitory concentrations as -log IC50 (mol/l)] for the compounds according to the invention are indicated for various PDE isoenzymes. […]

A further experiment has as its target PDE1. Put plainly: Inhibition of PDE isoenzymes: PDE1 (Ca^2+/calmodulin-dependent) from bovine brain. As to conditions: Ca^2+ (1 mM), calmodulin (100 nM), cGMP as substrate.
A further experiment addresses T2, PDE5 (Homo sapiens, UniProt O76074).
T2 construct: were investigated in homogenates of human blood platelets; from tissue; host or cells: human blood platelets, homogenate
Put plainly: Inhibition of PDE isoenzymes: PDE5 (cGMP-specific), homogenates of human blood platelets. The conditions noted are these: read-out: -log IC50, PDE5 (converted). The protocol: as §1, with “The columns were eluted with 2 ml of 30 mM ammonium formate (pH 6.0).” left out, “The proportion of hydrolyzed nucleotide in no case exceeded 20% of the original substrate concentration.” left out
as §2, §3

The structures appear in SMILES notation. Where a name gives a salt, the structure may show the parent alone.

PDE3, sequence (Q14432 whole entry): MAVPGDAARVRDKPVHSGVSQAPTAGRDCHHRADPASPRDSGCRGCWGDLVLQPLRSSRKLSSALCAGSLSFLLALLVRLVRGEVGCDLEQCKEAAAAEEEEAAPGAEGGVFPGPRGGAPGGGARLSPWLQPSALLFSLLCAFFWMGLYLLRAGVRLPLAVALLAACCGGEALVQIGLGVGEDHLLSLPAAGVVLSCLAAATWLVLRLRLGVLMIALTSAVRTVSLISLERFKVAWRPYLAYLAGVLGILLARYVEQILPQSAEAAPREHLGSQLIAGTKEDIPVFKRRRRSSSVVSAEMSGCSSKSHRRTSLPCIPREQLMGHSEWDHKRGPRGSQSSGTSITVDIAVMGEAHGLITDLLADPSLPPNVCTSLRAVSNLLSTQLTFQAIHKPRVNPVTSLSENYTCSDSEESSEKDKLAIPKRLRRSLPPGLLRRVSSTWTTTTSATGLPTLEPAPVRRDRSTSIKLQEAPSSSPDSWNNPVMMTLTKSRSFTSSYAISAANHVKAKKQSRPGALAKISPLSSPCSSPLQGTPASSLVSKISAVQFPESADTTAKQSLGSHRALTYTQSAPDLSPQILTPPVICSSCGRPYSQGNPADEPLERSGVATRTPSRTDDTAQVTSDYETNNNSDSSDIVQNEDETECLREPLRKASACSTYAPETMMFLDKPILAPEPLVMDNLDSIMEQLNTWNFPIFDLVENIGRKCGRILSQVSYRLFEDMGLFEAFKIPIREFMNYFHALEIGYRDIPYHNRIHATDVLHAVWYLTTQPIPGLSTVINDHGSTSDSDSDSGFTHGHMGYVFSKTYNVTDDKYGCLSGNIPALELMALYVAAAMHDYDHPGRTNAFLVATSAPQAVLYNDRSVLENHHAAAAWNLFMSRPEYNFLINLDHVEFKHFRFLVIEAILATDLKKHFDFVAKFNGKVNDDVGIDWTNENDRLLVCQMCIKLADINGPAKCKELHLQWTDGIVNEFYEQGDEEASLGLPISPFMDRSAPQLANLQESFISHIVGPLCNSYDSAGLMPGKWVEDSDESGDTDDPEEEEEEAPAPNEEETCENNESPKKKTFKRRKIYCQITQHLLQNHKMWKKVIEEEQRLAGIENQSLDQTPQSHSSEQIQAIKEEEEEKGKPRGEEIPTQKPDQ

As usually defined, the IC50 is the concentration that inhibits the measured activity by half. Take `CCOc1cc2c(cc1OCC)[C@@H]1CN(C)CC[C@@H]1N=C2c1ccc(C(=O)N2CCCCCC2)cc1.Cl` (single isomer, unassigned) [Compound 18, (-)-cis-8,9-Diethoxy-6-[4-(hexahydroazepin-1-yl-carbonyl)phenyl]-2-methyl-1,2,3,4,4a,10b-hexahydrobenzo[c][1,6]naphthyridine hydrochloride]: the IC50 on PDE3 is 182 nM. For the same compound, on PDE4, the “-log IC50, PDE4” value stood at 7.87.
Regarding `CCOc1cc2c(cc1OCC)[C@H]1CN(C)CC[C@H]1N=C2c1ccc(C(=O)N(C(C)C)C2CCCCC2)cc1` (single isomer, unassigned) [Compound 16, (+)-cis-8,9-Diethoxy-6-(4-N-cyclohexyl-N-isopropylaminocarbonylphenyl)-2-methyl-1,2,3,4,4a,10b-hexahydrobenzo[c][1,6]naphthyridine hydrochloride], the concentration for half-maximal inhibition (IC50) at PDE3 was 186 nM. Moreover, the “-log IC50, PDE4” value on PDE4 is 7.96.
Consider `CCOc1cc2c(cc1OC)C(c1ccc(C(=O)N(C(C)C)C(C)C)cc1)=N[C@H]1CCN(C)C[C@@H]21.Cl` (single isomer, unassigned) [Compound 19, (-)-cis-9-Ethoxy-8-methoxy-6-(4-diisopropylaminocarbonylphenyl)-2-methyl-1,2,3,4,4a,10b-hexahydrobenzo[c][1,6]naphthyridine hydrochloride], for which the IC50 at PDE3 is 27.5 nM. Further, the “-log IC50, PDE4” value on PDE4 turned out to be 8.18.
Turning to `CCOc1cc2c(cc1OC)C(c1ccc(C(=O)OC)cc1)=N[C@H]1CCN(C)C[C@@H]21.Cl` (single isomer, unassigned) [Compound 21, (-)-cis-9-Ethoxy-8-methoxy-6-(4-methoxycarbonylphenyl)-2-methyl-1,2,3,4,4a,10b-hexahydrobenzo[c][1,6]naphthyridine hydrochloride], the IC50 on PDE3 was 457 nM. In addition, the “-log IC50, PDE4” value on PDE4 is 7.67.
For the compound `CCCCN(CCCC)C(=O)c1ccc(C2=N[C@H]3CCN(C)C[C@H]3c3cc(OCC)c(OC)cc32)cc1.Cl` (single isomer, unassigned) [Compound 23, (-)-cis-9-Ethoxy-8-methoxy-6-(4-dibutylaminocarbonylphenyl)-2-methyl-1,2,3,4,4a,10b-hexahydrobenzo[c][1,6]naphthyridine hydrochloride], on PDE3, the IC50 was 229 nM. Further, at PDE4, the “-log IC50, PDE4” value was determined as 8.56.
For `CCOc1cc2c(cc1OCC)[C@@H]1CN(C)CC[C@@H]1N=C2c1ccc(C(=O)OC(C)C)cc1.Cl` (single isomer, unassigned) [Compound 5, (-)-cis-8,9-Diethoxy-6-(4-isopropoxycarbonylphenyl)-2-methyl-1,2,3,4,4a,10b-hexahydrobenzo[c][1,6]naphthyridine hydrochloride] the same measures were 70.8 nM and 7.75.
For `CCOc1cc2c(cc1OCC)[C@H]1CN(C)CC[C@H]1N=C2c1ccc(C(=O)N(C(C)C)C(C)C)cc1` (single isomer, unassigned) [Compound 11, (-)-cis-8,9-Diethoxy-6-(4-diisopropylaminocarbonylphenyl-2-methyl-1,2,3,4,4a,10b-hexahydrobenzo[c][1,6]naphthyridine hydrochloride] the same measures were 58.9 nM and 7.85.
For `COc1cc2c(cc1OC)[C@H]1CN(C)CC[C@H]1N=C2c1ccc(C(=O)OC(C)C)cc1` (single isomer, unassigned) [Compound 3, (-)-cis-8,9-Dimethoxy-6-(4-isoropoxycarbonylphenyl)-2-methyl-1,2,3,4,4a,10b-hexahydrobenzo[c][1,6]naphthyridine hydrochloride] the same measures were 72.4 nM and 6.45.
`CCCCN(CCCC)C(=O)c1ccc(C2=N[C@H]3CCN(C)C[C@H]3c3cc(OCC)c(OCC)cc32)cc1.Cl` (single isomer, unassigned) [Compound 17, (+)-cis-8,9-Diethoxy-6-(4-dibutylaminocarbonylphenyl)-2-methyl-1,2,3,4,4a,10b-hexahydrobenzo[c][1,6]naphthyridine hydrochloride]: the half-inhibitory concentration (IC50) on PDE3 was 417 nM. The “-log IC50, PDE4” value on PDE4 is 7.94.
Take `CCOc1cc2c(cc1OCC)[C@@H]1CN(C)CC[C@@H]1N=C2c1ccc(C(=O)OC)cc1.Cl` (single isomer, unassigned) [Compound 4, (-)-cis-8,9-Diethoxy-6-(4-methoxycarbonylphenyl)-2-methyl-1,2,3,4,4a,10b-hexahydrobenzo[c][1,6]naphthyridine hydrochloride]: the IC50 on PDE3 was 214 nM; at PDE2, 15800 nM; at PDE5, 3550 nM. Further, the “-log IC50, PDE4” value on PDE4 is given as 7.54. Besides, on PDE1, the “-log IC50, PDE1” value is reported as < 4 -log(mol/l).
On to `CCOc1cc2c(cc1OC)C(c1ccc(C(=O)N3CCCCCC3)cc1)=N[C@H]1CCN(C)C[C@@H]21` (single isomer, unassigned) [Compound 24, (-)-cis-9-Ethoxy-8-methoxy-6-[4-(hexahydroazepin-1-yl-carbonyl)phenyl]-2-methyl-1,2,3,4,4a,10b-hexahydrobenzo[c][1,6]naphthyridine], for which, at PDE3, the 50% inhibitory concentration (IC50) was 22.9 nM. Moreover, the “-log IC50, PDE4” value at PDE4 came out at 8.51.

For the origin of these results see patent US6008215A, “Benzonaphthyridines as bronchial therapeutics” (Byk Gulden Lomberg Chemische Fabrik GmbH, priority 1996, dated 1999).
